From PubChem BioAssay (NCI)
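A five-concentration, 48-hour dose response in 96-well plates underlies each endpoint, interpolated linearly between surrounding concentrations. The concentration for full growth arrest is given as TGI.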

Legend:
Test in all cases: NCI tumour cell line growth inhibition, 48 h
DMS 273 small cell lung = test system: DMS 273 small cell lung
KM20L2 colon = test system: KM20L2 colon
LXFL 529 NSCLC = test system: LXFL 529 NSCLC
M19-MEL melanoma = test system: M19-MEL melanoma
HOP-18 NSCLC = test system: HOP-18 NSCLC
SNB-78 CNS = test system: SNB-78 CNS
XF 498 CNS = test system: XF 498 CNS
DMS 114 small cell lung = test system: DMS 114 small cell lung

Question: What does the source list for CCOC(=O)CC1=N/C(=N/C(=N)N[N+](=O)[O-])SC1?
Answer: TGI (DMS 273 small cell lung): > 100 µM; TGI (KM20L2 colon): > 100 µM; TGI (LXFL 529 NSCLC): > 100 µM; TGI (M19-MEL melanoma): > 100 µM; TGI (HOP-18 NSCLC): > 100 µM; TGI (SNB-78 CNS): > 100 µM

Question: How did the TGI (DMS 273 small cell lung) turn out when Nc1ccccc1N was run?
Answer: The TGI was over 100 µM.

Question: And the TGI (LXFL 529 NSCLC)?
Answer: Its TGI is over 100 µM.

Question: And the TGI (M19-MEL melanoma)?
Answer: Its TGI is over 100 µM.

Question: What about the TGI (HOP-18 NSCLC) of the same compound?
Answer: Its TGI is over 100 µM.

Question: What does the source list for COc1cccc2c1C(=O)c1c(O)c3c(c(O)c1C2=O)C[C@@](O)(C(=O)CO)CC3OC1CC(N(C)CCOCC(OC(C)=O)OC(C)=O)C(O)C(C)O1 (some centres undefined)?
Answer: TGI (XF 498 CNS): > 0.01 µM; TGI (KM20L2 colon): > 0.01 µM; TGI (LXFL 529 NSCLC): > 0.01 µM; TGI (M19-MEL melanoma): > 0.01 µM; TGI (DMS 114 small cell lung): > 0.01 µM; TGI (HOP-18 NSCLC): > 0.01 µM

Question: Which TGI (XF 498 CNS) does the source give for CN1C2CCC1/C(=C/c1cccc3c1OCO3)C(=O)/C2=C\c1cccc2c1OCO2 here?
Answer: Its TGI is over 100 µM.

Question: And the TGI (DMS 273 small cell lung)?
Answer: Its TGI is over 100 µM.

Question: And the TGI (KM20L2 colon)?
Answer: The TGI was over 100 µM.

Question: What about the TGI (LXFL 529 NSCLC) of the same compound?
Answer: Its TGI is over 100 µM.

Question: And the TGI (M19-MEL melanoma)?
Answer: The TGI was over 100 µM.

Question: What about the TGI (DMS 114 small cell lung) of the same compound?
Answer: The TGI was over 100 µM.

Question: How did the TGI (XF 498 CNS) turn out when COc1ccc(-c2cc(N3CCN(c4ccc(Cl)cc4)CC3)c(C#N)c(=O)o2)cc1 was run?
Answer: Its TGI is 7.76 µM.

Question: And the TGI (DMS 273 small cell lung)?
Answer: Its TGI is 34.4 µM.

Question: And the TGI (KM20L2 colon)?
Answer: Its TGI is over 100 µM.

Question: What about the TGI (LXFL 529 NSCLC) of the same compound?
Answer: The TGI was 70.5 µM.

Question: And the TGI (DMS 114 small cell lung)?
Answer: Its TGI is 25.6 µM.

Question: What about the TGI (HOP-18 NSCLC) of the same compound?
Answer: The TGI was 44.3 µM.

Question: And the TGI (SNB-78 CNS)?
Answer: Its TGI is 34.2 µM.

Question: What does the source list for CC(=O)CCC#Cc1ccccc1C(=O)C(C)=[N+]=[N-]?
Answer: TGI (XF 498 CNS): 89.3 µM; TGI (DMS 273 small cell lung): 90.1 µM; TGI (KM20L2 colon): > 100 µM; TGI (DMS 114 small cell lung): 42 µM; TGI (HOP-18 NSCLC): > 100 µM
